Measurements as given in PMC4059401 (Xenobiotica; the fate of foreign compounds in biological …, 2013).

What was measured:
CYP1A2 = CYP1A2 (Homo sapiens, UniProt P05177); assay: metabolite formation by recombinant CYP Supersomes, LC/MS; format: cell-based
CYP3A4 = CYP3A4 (Homo sapiens, UniProt P08684); assay: as above; format: cell-based
CYP2D6 = CYP2D6 (Homo sapiens, UniProt P10635); assay: UV-visible spectral binding titration, purified enzyme
Sequence of CYP2D6 (P10635 whole entry): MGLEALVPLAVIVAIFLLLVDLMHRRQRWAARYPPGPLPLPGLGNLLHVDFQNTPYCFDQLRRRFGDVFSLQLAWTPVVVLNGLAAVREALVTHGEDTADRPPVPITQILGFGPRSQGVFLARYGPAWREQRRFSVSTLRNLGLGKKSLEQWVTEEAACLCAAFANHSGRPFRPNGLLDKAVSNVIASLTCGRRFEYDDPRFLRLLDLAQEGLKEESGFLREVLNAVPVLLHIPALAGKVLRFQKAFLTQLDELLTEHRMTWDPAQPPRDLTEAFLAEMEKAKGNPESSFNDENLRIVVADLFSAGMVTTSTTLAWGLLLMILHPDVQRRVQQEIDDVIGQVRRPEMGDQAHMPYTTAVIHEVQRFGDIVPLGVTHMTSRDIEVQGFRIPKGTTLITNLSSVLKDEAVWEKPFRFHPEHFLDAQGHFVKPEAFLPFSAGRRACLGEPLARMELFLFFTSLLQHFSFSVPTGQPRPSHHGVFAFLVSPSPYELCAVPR

Sequence of CYP1A2 (P16435 2-677): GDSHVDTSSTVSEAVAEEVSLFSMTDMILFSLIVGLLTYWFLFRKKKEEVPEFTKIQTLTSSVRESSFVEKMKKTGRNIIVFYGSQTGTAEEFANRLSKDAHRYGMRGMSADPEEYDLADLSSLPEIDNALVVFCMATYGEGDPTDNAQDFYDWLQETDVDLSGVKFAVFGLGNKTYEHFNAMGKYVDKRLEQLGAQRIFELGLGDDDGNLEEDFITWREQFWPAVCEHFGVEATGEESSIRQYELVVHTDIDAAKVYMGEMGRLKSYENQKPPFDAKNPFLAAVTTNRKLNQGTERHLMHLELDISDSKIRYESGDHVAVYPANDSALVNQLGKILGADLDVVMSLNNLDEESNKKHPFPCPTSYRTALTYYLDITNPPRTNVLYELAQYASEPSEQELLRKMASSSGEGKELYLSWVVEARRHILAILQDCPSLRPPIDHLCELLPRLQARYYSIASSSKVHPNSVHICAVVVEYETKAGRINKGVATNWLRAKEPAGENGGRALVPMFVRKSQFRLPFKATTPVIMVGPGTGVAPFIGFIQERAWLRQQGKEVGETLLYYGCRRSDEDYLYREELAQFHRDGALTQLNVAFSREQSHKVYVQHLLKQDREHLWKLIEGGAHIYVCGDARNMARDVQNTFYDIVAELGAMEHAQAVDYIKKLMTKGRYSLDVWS
Sequence of CYP1A2 (P05177 2-516): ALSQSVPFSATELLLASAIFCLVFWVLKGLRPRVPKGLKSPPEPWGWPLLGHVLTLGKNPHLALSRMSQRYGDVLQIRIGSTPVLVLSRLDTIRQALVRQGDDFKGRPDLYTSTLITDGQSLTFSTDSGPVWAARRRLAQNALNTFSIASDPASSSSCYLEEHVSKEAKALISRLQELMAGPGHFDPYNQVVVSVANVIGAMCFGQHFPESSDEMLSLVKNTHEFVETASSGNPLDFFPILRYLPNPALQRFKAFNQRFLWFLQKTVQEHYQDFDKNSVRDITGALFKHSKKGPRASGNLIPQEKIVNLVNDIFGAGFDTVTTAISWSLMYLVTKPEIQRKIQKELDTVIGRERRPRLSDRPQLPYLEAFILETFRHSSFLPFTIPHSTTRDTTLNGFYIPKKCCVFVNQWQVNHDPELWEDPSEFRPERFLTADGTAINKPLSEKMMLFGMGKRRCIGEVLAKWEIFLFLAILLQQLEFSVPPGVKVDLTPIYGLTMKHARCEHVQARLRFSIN
Sequence of CYP3A4 (P16435 2-677): as the sequence (P16435 2-677) above
Sequence of CYP3A4 (P08684 2-503): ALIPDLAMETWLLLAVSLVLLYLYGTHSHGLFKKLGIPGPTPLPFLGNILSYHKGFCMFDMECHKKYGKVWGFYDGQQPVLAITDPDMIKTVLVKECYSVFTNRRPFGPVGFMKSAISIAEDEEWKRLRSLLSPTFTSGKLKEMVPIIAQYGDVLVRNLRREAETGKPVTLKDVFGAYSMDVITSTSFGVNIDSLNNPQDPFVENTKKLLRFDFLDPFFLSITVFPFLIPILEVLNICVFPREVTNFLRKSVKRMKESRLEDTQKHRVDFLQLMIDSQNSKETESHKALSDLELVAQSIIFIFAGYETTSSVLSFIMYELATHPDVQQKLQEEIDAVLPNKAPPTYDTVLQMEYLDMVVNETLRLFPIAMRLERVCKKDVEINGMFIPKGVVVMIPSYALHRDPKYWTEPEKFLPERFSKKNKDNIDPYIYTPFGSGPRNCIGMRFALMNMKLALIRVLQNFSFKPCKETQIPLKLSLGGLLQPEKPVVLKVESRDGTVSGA

CCN(CC)CCNC(=O)c1cc(Cl)c(N)cc1OC [Metoclopramide, 4-amino-5-chloro-N-(2-(diethylamino)ethyl)-2-methoxybenzamide]
metabolite formation by recombinant CYP Supersomes, LC/MS (CYP1A2): CYPs 1A2, 2C9, 2C19, and 3A4 also metabolized metoclopramide. | metabolite formation by recombinant CYP Supersomes, LC/MS (CYP3A4): All three monooxygenation products (M4a, M4b, M4c) were formed by CYP3A4 and CYP2D6 | Kd (CYP2D6): 9.56 ± 1.09 µM
